# Results from patent US10011596B2, “2-amino-3-fluoro-3-(fluoromethyl)-6-methyl-6-phenyl-3,4,5,6-tetrahydropyridines as BACE1 inhibitors” (H. Lundbeck A/S, priority 2015, dated 2018).
# Tests used:
# human BACE1 [1] = biological target: T1, human BACE1 (Homo sapiens, UniProt P56817); test: BACE1 efficacy assay (FRET-based, commercial BACE1 kit); assay type: biochemical; design: purchased Life Technologies P2985; conditions: test compound at 10 μM
# Description: The efficacy assay was performed as a FRET-based assay using a commercially available BACE1 kit (Life Technologies, P2985). 2 μl test compound at 10 μM (final concentration) and 15 μl BACE1 enzyme from the kit (final concentration 3 nM) were preincubated for 15 minutes at room temperature before addition of 15 μl of substrate from the kit (250 nM final concentration) and incubated for additional 90 minutes at room temperature. The assay plate was subsequently read in a Pherastar (Ex540/Em590).
# P-gp (MDR1) = test: MDCK-MDR1 assay (permeability, efflux ratio); assay type: in vitro ADME; conditions: dog
# Description: The permeability of the test compounds was assessed in MDCK-MDR1 cells that were cultured to confluency (4-6 days) in a 96 transwell plate. Test compounds were diluted with the transport buffer (HBSS+1% BSA) to a concentration of 0.5 μM and applied to the apical or basolateral side of the cell monolayer. Permeation of the test compounds from A to B direction or B to A direction was determined in triplicate over a 60-minute incubation time at 37° C. and 5% CO2 with a relative humidity of 95%. Test compounds were quantified by LC-MS/MS analysis based on the peaks area ratios of analyte/IS in both the receiver and donor wells of the transwell plate.
# The apparent permeability coefficient Papp (cm/s) was calculated using the equation: Papp=(dCr/dt)×Vr/(A×C0)
# Where dCr/dt is the cumulative concentration of compound in the receiver chamber as a function of time (μM/s); Vr is the solution volume in the receiver chamber (0.05 mL on the apical side; 0.25 mL on the basolateral side); A is the surface area for the transport, i.e. 0.0804 cm^2 for the area of the monolayer; C0 is the initial concentration in the donor chamber (μM).
# human BACE1 [2] = biological target: T1, human BACE1; test: BACE1 binding assay (SPA-based, radioligand displacement); design: biotin (biotinylated form); made in house; host or cells: Freestyle HEK293 cells; conditions: pH 4.5, 10 nM radioligand, 6 nM human BACE1, read-out: BACE1 binding affinity
# Description: The binding assay was performed as SPA-based assay using a biotinylated form of human BACE1 recombinantly expressed and subsequently purified from Freestyle HEK293 cells. The binding assay was run in a 50 mM sodium acetate buffer, pH 4.5 containing 50 mM NaCl and 0.03% Tween-20 in white clear bottom 384 plates (Corning #3653). 10 nM (final concentration) radioligand ([^3H]-N-((1S,2R)-1-benzyl-3-cyclopropylamino-2-hydroxy-propyl)-5-(methanesulfonyl-methyl-amino)-N-((R)-1-phenyl-ethyl)-isophthalamide) (TRQ11569 purchased from GE Healthcare) was mixed with test compound at a given concentration, 6 nM (final concentration) human BACE1 and 25 μg Streptavidin coated PVT core SPA beads (RPNQ0007, GE Healthcare Life Sciences) in a total volume of 40 μl. Several concentrations of each test compound were tested in the assay for IC50 determination. The plates were incubated for one hour at room temperature and counted in a WaIlac Trilux counter. […] For each test compound, a IC50 value (the concentration mediating 50% inhibition of the specific binding of the radioligand) was determined from concentration-response curve and used to calculate the Ki from the equation Ki=IC50/(1+L/Kd), where L and Kd are the final concentration of the radioligand used in the assay and the dissociation constant of the radioligand, respectively. The Kd of the radioligand was determined from saturation binding experiments.
# T1 sequence (P56817 46-501): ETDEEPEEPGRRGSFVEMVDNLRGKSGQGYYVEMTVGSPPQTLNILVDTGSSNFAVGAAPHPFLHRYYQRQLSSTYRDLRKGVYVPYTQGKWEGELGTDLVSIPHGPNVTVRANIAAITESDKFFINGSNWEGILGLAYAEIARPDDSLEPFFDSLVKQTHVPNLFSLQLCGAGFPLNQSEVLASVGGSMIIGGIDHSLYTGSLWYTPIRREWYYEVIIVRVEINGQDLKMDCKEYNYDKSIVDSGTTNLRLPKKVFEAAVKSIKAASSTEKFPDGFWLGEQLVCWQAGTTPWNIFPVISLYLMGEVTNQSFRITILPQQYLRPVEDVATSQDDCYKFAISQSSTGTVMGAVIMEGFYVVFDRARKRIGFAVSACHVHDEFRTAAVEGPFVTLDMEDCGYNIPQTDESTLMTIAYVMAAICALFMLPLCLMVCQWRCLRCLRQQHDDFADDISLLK
SMILES,inhibition at 10 µM (human BACE1 [1]),"efflux ratio at 60 min, 0.5 µM (P-gp (MDR1))",Ki (human BACE1 [2])
"COc1ccc(C(=O)Nc2cc(F)c(F)c([C@]3(C)CC[C@@](F)(CF)C(N)=N3)c2)nc1 [Compound 16, N-[3-[(2S,5S)-6-Amino-5-fluoro-5-(fluoromethyl)-2-methyl-2,3,4,5-tetrahydropyridin-2-yl]-4,5-difluoro-phenyl]-5-methoxy-pyridine-2-carboxamide]",104%,–,–
"COc1ccc(C(=O)Nc2ccc(F)c([C@]3(C)CC[C@@](F)(CF)C(N)=N3)c2)nc1 [Compound 1, N-(3-((2S,5S)-6-Amino-5-fluoro-5-(fluoromethyl)-2-methyl-2,3,4,5-tetrahydropyridin-2-yl)-4-fluorophenyl)-5-methoxypicolinamide]",106%,0.89,22 nM
C[C@@]1(c2cc(NC(=O)c3coc(C(F)F)n3)ccc2F)CC[C@@](F)(CF)C(N)=N1 [Compound 9],103%,8.61,26 nM
"Cc1cc(C#N)cnc1C(=O)Nc1ccc(F)c([C@]2(C)CC[C@@](F)(CF)C(N)=N2)c1 [Compound 3, N-(3-((2S,5S)-6-Amino-5-fluoro-5-(fluoromethyl)-2-methyl-2,3,4,5-tetrahydropyridin-2-yl)-4-fluorophenyl)-5-cyano-3-methylpicolinamide]",105%,4.87,10 nM
C[C@@]1(c2cc(NC(=O)c3ccn(C(F)F)n3)ccc2F)CC[C@@](F)(CF)C(N)=N1 [Compound 10],103%,10.6,22 nM
"C[C@@]1(c2cc(NC(=O)c3ccc(F)cn3)cc(F)c2F)CC[C@](F)(CF)C(N)=N1 [Compound 18, N-[3-[(2S,5R)-6-Amino-5-fluoro-5-(fluoromethyl)-2-methyl-2,3,4,5-tetrahydropyridin-2-yl]-4,5-difluoro-phenyl]-5-fluoro-pyridine-2-carboxamide]",103%,–,300 nM
"NC1=N[C@](CF)(c2cc(NC(=O)c3ccc(F)cn3)ccc2F)CC[C@@]1(F)CF [Compound 21, N-[3-[(2S,5S)-6-amino-5-fluoro-2,5-bis(fluoromethyl)-2,3,4,5-tetrahydropyridin-2-yl]-4-fluoro-phenyl]-5-fluoro-pyridine-2-carboxamide]",–,0.97,67 nM
"[2H]C([2H])([2H])Oc1ccc(C(=O)Nc2ccc(F)c([C@]3(C)CC[C@@](F)(CF)C(N)=N3)c2)nc1 [Compound 2, N-(3-((2S,5S)-6-Amino-5-fluoro-5-(fluoromethyl)-2-methyl-2,3,4,5-tetrahydropyridin-2-yl)-4-fluorophenyl)-5-(methoxy-d3)picolinamide]",104%,2.32,20 nM
"COc1cnc(C(=O)Nc2cc(F)c(F)c([C@]3(C)CC[C@](F)(CF)C(N)=N3)c2)cn1 [Compound 20, N-[3-[(2S,5R)-6-Amino-5-fluoro-5-(fluoromethyl)-2-methyl-2,3,4,5-tetrahydropyridin-2-yl]-4,5-difluoro-phenyl]-5-methoxy-pyrazine-2-carboxamide]",102%,0.77,230 nM
"C[C@@]1(c2cc(NC(=O)c3ccc(Cl)cn3)ccc2F)CC[C@@](F)(CF)C(N)=N1 [Compound 4, N-(3-((2S,5S)-6-Amino-5-fluoro-5-(fluoromethyl)-2-methyl-2,3,4,5-tetrahydropyridin-2-yl)-4-fluorophenyl)-5-chloropicolinamide]",102%,1.34,11 nM
"COc1ccc(C(=O)Nc2ccc(F)c([C@]3(C)CC[C@](F)(CF)C(N)=N3)c2)nc1 [Compound 14, N-(3-((2S,5R)-6-Amino-5-fluoro-5-(fluoromethyl)-2-methyl-2,3,4,5-tetrahydropyridin-2-yl)-4-fluorophenyl)-5-methoxypicolinamide]",103%,1.06,130 nM
"C[C@@]1(c2cc(NC(=O)c3ccc(F)cn3)cc(F)c2F)CC[C@@](F)(CF)C(N)=N1 [Compound 15, N-[3-[(2S,5S)-6-Amino-5-fluoro-5-(fluoromethyl)-2-methyl-2,3,4,5-tetrahydropyridin-2-yl]-4,5-difluoro-phenyl]-5-fluoro-pyridine-2-carboxamide]",104%,1.17,52 nM
"COc1cnc(C(=O)Nc2ccc(F)c([C@]3(CF)CC[C@@](F)(CF)C(N)=N3)c2)cn1 [Compound 23, N-[3-[(2S,5S)-6-amino-5-fluoro-2,5-bis(fluoromethyl)-2,3,4,5-tetrahydropyridin-2-yl]-4-fluoro-phenyl]-5-methoxy-pyrazine-2-carboxamide]",–,1.06,17 nM
"NC1=N[C@](CF)(c2cc(NC(=O)c3ccc(F)cn3)ccc2F)CC[C@]1(F)CF [Compound 24, N-[3-[(2S,5R)-6-amino-5-fluoro-2,5-bis(fluoromethyl)-2,3,4,5-tetrahydropyridin-2-yl]-4-fluoro-phenyl]-5-fluoro-pyridine-2-carboxamide]",–,0.88,180 nM
"COc1ccc(C(=O)Nc2cc(F)c(F)c([C@]3(C)CC[C@](F)(CF)C(N)=N3)c2)nc1 [Compound 19, N-[3-[(2S,5R)-6-Amino-5-fluoro-5-(fluoromethyl)-2-methyl-2,3,4,5-tetrahydropyridin-2-yl]-4,5-difluoro-phenyl]-5-methoxy-pyridine-2-carboxamide]",104%,–,–
"COc1cnc(C(=O)Nc2ccc(F)c([C@]3(CF)CC[C@](F)(CF)C(N)=N3)c2)cn1 [Compound 26, N-[3-[(2S,5R)-6-amino-5-fluoro-2,5-bis(fluoromethyl)-2,3,4,5-tetrahydropyridin-2-yl]-4-fluoro-phenyl]-5-methoxy-pyrazine-2-carboxamide]",–,0.92,160 nM
"Cn1cc(Br)nc1C(=O)Nc1ccc(F)c([C@]2(C)CC[C@@](F)(CF)C(N)=N2)c1 [Compound 7, N-(3-((2S,5S)-6-Amino-5-fluoro-5-(fluoromethyl)-2-methyl-2,3,4,5-tetrahydropyridin-2-yl)-4-fluorophenyl)-4-bromo-1-methyl-1H-imidazole-2-carboxamide]",104%,–,67 nM
"Cc1csc(C(=O)Nc2ccc(F)c([C@]3(C)CC[C@@](F)(CF)C(N)=N3)c2)n1 [Compound 8, N-(3-((2S,5S)-6-Amino-5-fluoro-5-(fluoromethyl)-2-methyl-2,3,4,5-tetrahydropyridin-2-yl)-4-fluorophenyl)-4-methylthiazole-2-carboxamide]",–,2.36,62 nM
"C[C@@]1(c2cc(NC(=O)c3ccc(Cl)cc3)ccc2F)CC[C@@](F)(CF)C(N)=N1 [Compound 12, N-(3-((2S,5S)-6-Amino-5-fluoro-5-(fluoromethyl)-2-methyl-2,3,4,5-tetrahydropyridin-2-yl)-4-fluorophenyl)-4-chlorobenzamide]",103%,–,140 nM
Cc1nc(C(=O)Nc2ccc(F)c([C@]3(C)CC[C@@](F)(CF)C(N)=N3)c2)co1 [Compound 6],106%,7,46 nM
